{"source": "paper PMC4405790", "about": "(Pharmaceutical research, 2012)", "origin": "cited, not measured here", "key": {"[1]": {"settings": "aqueous"}}, "note": "Entries after “also recorded” stand apart in the source; their conditions may differ.", "data": [{"smiles": "Cc1cc(C)cc(C(=O)c2c(C(C)C)c(=O)[nH]c(=O)n2CC2CC2)c1", "note": "[IQP-0528, 1-(3-Cyclopropyl)methyl-6-(3,5-dimethylbenzoyl)-5-isopropyl-2,4(1H,3H)-pyrimidinedione]", "values": [{"measurement": "activity against laboratory strains of virus", "setting": "HIV", "value": "nanomolar"}, {"measurement": "activity against representative clinical strains of HIV", "setting": "HIV", "value": "nanomolar to subnanomolar"}, {"measurement": "level of activity as a NNRTI", "setting": "HIV; cell-based in vitro assays", "value": "subnanomolar"}, {"measurement": "level of activity as inhibitor of a step in virus entry", "setting": "HIV; cell-based in vitro assays", "value": "nanomolar"}, {"measurement": "solubility", "setting": "[1]", "value": "low solubility; also recorded: very low solubility"}]}]}
